In patent US6875886B2, “Modified PSMA ligands and uses related thereto” (Beth Israel Deaconess Medical Center, Inc., priority 2001, dated 2005):
Where a SMILES comes first, the peptide text is derived from it.

Columns and labels:
[1] = tested on: NAALADase; details: NAALADase with NAAG as substrate; cited from earlier work
[2] = target: PSMA (Homo sapiens, UniProt Q04609); assay: 3H-NAAG assay of PSMA enzymatic activity; type: biochemical
Source text: To determine the effects of several PSMA ligands and modified PSMA ligands (β-AG/78) on PSMA activity, ^3H-NAAG assay (Slusher et al., J. Biol. Chem., 1990, 265: 21297-301) was used to measure the activity of PSMA at the presence or absence of several PSMA ligands.
β-AG/78 (FIG. 5, bottom panel) is a conjugate of β-AG and the near-infrared fluorophore IRDye78. The conjugate can be synthesized using a similar scheme as shown in Example 1, and the product can be purified using either TLC (not shown) or HPLC, as shown in FIG. 6. As a control, IRDye78 was also tested. The results were shown as percentage of remaining PSMA activity as compared to PSMA activity without any additives, over a range of inhibitor concentrations.

Chain of PSMA (Q04609 whole entry): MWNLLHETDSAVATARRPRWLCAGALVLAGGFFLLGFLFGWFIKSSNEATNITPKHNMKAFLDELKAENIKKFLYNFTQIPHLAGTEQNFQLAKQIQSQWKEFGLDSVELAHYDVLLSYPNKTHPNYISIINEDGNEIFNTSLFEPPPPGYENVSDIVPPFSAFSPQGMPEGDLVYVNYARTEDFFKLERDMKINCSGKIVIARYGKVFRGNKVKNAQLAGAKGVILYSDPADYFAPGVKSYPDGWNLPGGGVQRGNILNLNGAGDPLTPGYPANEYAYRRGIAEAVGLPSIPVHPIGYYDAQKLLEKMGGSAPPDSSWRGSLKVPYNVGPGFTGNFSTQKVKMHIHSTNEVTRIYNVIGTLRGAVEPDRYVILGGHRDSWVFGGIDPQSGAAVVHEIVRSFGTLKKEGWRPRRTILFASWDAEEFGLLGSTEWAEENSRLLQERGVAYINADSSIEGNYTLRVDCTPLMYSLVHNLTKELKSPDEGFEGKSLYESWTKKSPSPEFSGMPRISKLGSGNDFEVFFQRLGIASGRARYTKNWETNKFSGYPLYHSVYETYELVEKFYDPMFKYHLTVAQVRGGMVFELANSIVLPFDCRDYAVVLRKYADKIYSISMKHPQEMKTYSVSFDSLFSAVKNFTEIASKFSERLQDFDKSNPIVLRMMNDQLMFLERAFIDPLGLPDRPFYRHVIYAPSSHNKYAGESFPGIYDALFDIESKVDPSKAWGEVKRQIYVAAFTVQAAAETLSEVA

CC(=O)N[C@@H](CC(=O)O)C(=O)N[C@@H](CCC(=O)O)C(=O)O [NAAG, N-acetyl-aspartyl-glutamate] (Ac-Asp-Glu-OH)
Km [1]: 0.54 µM

N[C@@H](CC(=O)N[C@@H](CCC(=O)O)C(=O)O)C(=O)O [β-AG, β-Asp-Glu]
inhibitory potency relative to comparator ([2]; comparison of inhibition curves): slightly less potent than that of beta-N-acetyl-AG (β-NAAG) | inhibition of PSMA enzymatic activity ([2]; percentage of remaining PSMA activity over a range of inhibitor concentrations): is indeed an inhibitor of PSMA enzymatic activity
